From patent publication US20080299210A1, “STABLE NANOSIZED AMORPHOUS DRUG” (priority 2006, published 2008)

Legend:
[1] = Differential scanning calorimetry (DSC) of drug samples; assay type: physicochemical; conditions: for ΔHc / Tg of drug: DSC scanning rate 10° C./min
Description: The amorphous state of the amorphous drug core is determined by subjecting a population of nanoparticles that comprise one or more nanoparticles that comprise the recited amorphous drug core to differential scanning calorimetry (DSC). In an embodiment, a DSC method according to the invention used a Perkin-Elmer DSC-7 or a Diamond DSC calorimeter applied for the measurement of specific transition temperatures of tested samples. […] The instrument was calibrated using indium, tin and zinc certified reference materials (CRMs) The amorphous state of the amorphous drug core, as measured by DSC is expressed as a weight fraction of the weight of amorphous material in the amorphous drug core to the total weight of the amorphous drug core, expressed as an average value across the population of nanoparticles being measured. For instance, if a population of nanoparticles was measured using DSC, and the amorphous state was determined to be a particular value for the population, that value would be considered the average amorphous state for each nanoparticle within the population. An inventive amorphous drug core may contain a small amount of crystalline drug. […] “Glass forming ability” or “GFA” means the ratio of Tg to Tm. It can be calculated as: […] is a measure of the tendency of an amorphous drug to remain in an amorphous state. […] “Glass transition temperature” or “Tg” means that temperature at which a material transitions to a glassy state from a liquid state, as measured at standard atmospheric pressure. […] C. […] C.

Water solubility of drug = assay type: physicochemical; conditions: 25 °C
Description: “Water solubility” means a measure of the maximum possible concentration of a drug dissolved in water. The water temperature may be specified; in an embodiment water solubility is determined at 25 Deg. C. Units of measurement of water solubility are typically mass/volume, such as mg/ml. The water solubility of drug useful in the practice of the present invention is less than or equal to about 1 mg/ml at 25 Deg. C.; preferably less than or equal to about 0.1 mg/ml at 25 Deg. C.; more preferably less than or equal to about 0.01 mg/ml at 25 Deg. C., still more preferably less than or equal to about 1 microgram/ml at 25 Deg. C.

O=C(NN1CCCCC1)c1nn(-c2ccc(Cl)cc2Cl)c2c1CCC/C2=C\c1ccc(F)cc1 [COMPOUND 1]
glass forming ability (GFA), Tg/Tm [1]: 0.81 | solubility (Water solubility of drug): ≤ 0.2 ng/mL

CC(C)(C)c1ccc(C(O)CCCN2CCC(C(O)(c3ccccc3)c3ccccc3)CC2)cc1 (stereo not shown) [Crystalline terfenadine, terfenadine]
ΔHc [1]: 108.63 J/g

O=C(NN1CCCCC1)c1nn(-c2ccc(Cl)cc2Cl)c2c1CCC/C2=C\c1ccc(F)cc1 [Crystalline COMPOUND 1]
ΔHc [1]: 77.64 J/g

CC(C)(C)c1ccc(C(O)CCCN2CCC(C(O)(c3ccccc3)c3ccccc3)CC2)cc1 (stereo not shown) [terfenadine, Terfenadine]
glass forming ability (GFA), Tg/Tm [1]: 0.77

O=C(NN1CCCCC1)c1nn(-c2ccc(Cl)cc2Cl)c2c1CCC/C2=C\c1ccc(F)cc1 [Amorphous COMPOUND 1]
Tg of drug [1]: 87.07 °C | ΔHc [1]: 0 J/g

CC(C)(C)c1ccc(C(O)CCCN2CCC(C(O)(c3ccccc3)c3ccccc3)CC2)cc1 (stereo not shown) [Amorphous terfenadine, terfenadine]
Tg of drug [1]: 53.77 °C | ΔHc [1]: 10.35 J/g | crystallinity (crystalline portion) by DSC ([1]; relative to original crystallinity): less than 20%
